The values that follow are results of earlier work, collected in patent US20060147526A1, “Pharmaceutical formulations comprising ß-2 adrenoreceptor agonists and xanthines” (CIPLA LIMTED, priority 2002, published 2006).

For series [1] the following is noted: in vivo.
The conditions of series [2]: inhalation.

Each structure is given as a SMILES string.

For the compound `CN(C)C(=O)Oc1cc(OC(=O)N(C)C)cc(C(O)CNC(C)(C)C)c1` (centres unmarked) [bambuterol, 5-[2-(tert-butylamino)-1-hydroxyethyl]-m-phenylene-bis(dimethylcarbamate)], the duration of action in series [1] was 24 h.

Regarding `OCc1cc(C(O)CNCCCCCCOCCCCc2ccccc2)ccc1O` (centres unmarked) [salmeterol], in series [2], the persistent bronchodilation lasting entry is “over 12 hours”.
